Where “and” joins values, the source holds several entries; their conditions need not be identical. Identical values can stand only once.
Legend:
[1] = target: T1, Na+-K+-Cl− cotransporter (NKCC1) (Homo sapiens, UniProt P55011); assay: Thallium (Tl+) influx-based fluorescent assay of NKCC1 activity in T84 cells; type: cell-based
T1 sequence (P55011 1-1212): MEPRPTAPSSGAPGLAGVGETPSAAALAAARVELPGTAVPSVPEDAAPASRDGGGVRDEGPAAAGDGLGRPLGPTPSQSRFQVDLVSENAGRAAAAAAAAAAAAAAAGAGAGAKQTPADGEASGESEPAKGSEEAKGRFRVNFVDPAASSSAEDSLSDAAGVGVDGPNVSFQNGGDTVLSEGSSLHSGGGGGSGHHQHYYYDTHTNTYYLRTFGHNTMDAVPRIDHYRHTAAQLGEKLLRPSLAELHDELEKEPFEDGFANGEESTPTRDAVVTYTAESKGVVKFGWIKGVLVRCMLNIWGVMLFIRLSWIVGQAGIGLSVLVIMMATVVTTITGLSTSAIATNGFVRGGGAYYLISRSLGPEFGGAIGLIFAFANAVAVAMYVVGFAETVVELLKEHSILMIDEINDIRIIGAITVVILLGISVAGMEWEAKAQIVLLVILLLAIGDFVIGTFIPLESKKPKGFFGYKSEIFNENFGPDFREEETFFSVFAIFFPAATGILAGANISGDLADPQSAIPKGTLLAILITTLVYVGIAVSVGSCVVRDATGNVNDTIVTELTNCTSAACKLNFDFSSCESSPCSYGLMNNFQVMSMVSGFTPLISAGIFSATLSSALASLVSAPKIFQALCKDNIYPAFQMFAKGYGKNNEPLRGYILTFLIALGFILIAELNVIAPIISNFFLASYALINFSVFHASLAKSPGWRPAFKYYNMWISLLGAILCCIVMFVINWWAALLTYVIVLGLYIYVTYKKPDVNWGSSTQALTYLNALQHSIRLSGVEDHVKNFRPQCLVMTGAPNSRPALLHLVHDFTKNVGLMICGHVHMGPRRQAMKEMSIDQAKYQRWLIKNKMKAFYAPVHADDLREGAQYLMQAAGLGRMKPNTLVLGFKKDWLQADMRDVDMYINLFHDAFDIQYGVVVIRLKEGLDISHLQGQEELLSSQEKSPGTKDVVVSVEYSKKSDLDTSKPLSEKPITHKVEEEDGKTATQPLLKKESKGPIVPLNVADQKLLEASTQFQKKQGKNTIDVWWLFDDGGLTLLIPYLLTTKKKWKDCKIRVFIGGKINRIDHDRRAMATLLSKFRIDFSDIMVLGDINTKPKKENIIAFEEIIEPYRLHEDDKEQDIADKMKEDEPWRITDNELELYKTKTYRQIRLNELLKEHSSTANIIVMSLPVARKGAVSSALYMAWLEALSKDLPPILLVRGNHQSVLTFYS

CFTR Cl− channel [2] = target: T2, CFTR Cl− channel (Homo sapiens, UniProt P13569); assay: Apical Cl− current analysis of CFTR Cl− channel activity in basolaterally permeabilized T84 cells; type: cell-based
[3] = system: cholera toxin (CT)-induced intestinal fluid secretion; settings: mouse, in vivo; cited from earlier work
[4] = system: live V. cholerae-induced intestinal fluid secretion; settings: mice; ref [17], [38]; cited from earlier work
CFTR Cl− channel [5] = target: T2, CFTR Cl− channel; assay: Apical Cl− current analysis of CFTR Cl− channel activity in Calu-3 cells; type: cell-based; settings: CPT-cAMP
[6] = system: intracellular cAMP levels in T84 cells; assay: Intracellular cAMP measurement (cAMP immunoassay) in T84 cells; type: cell-based, human; settings: 200 µM, 1 h, basal and forskolin-stimulated (20 µM) conditions
Procedure: Intracellular cAMP levels in T84 cells were measured using cAMP immunoassays (R&D Systems, Minneapolis, Minnesota, USA). T84 cells were seeded on 24-well plates at a density of 10^6 cells/well and grown for 24 h in a humidified 5% CO2/[…] incubator at 37°C. […] Thereafter, cells were lysed with cell lysis buffer and level of intracellular cAMP was measured according to the manufacturer's instructions.
Data are expressed as means ± S.E.M. NS, non-statistical difference (n = 3).

Na+-K+ ATPase = Na+-K+ ATPase activity (ouabain-sensitive short-circuit current) in T84 cells; type: cell-based, human; settings: pretreatment 200 µM
Procedure: After stabilization of the amphotericin B-induced rise in Isc, ouabain (1 mM) was added into the basolateral solution and the values of ouabain-sensitive current were used to represent the activity of Na^+-K^+ ATPases.
In this method, apical membrane was permeabilized by amphotericin B (250 µg/ml) and a K^+ gradient ([K^+]apical>[K^+]basolateral) was established using asymmetrical K^+ buffers in the presence of ouabain in basolateral solutions (to prevent current generated by Na^+-K^+ ATPases) (Fig. 5A, inset). The basolateral K^+ current elicited by an addition of cell-permeable cAMP (e.g. CPT-cAMP) would, therefore, reflect the activity of cAMP-activated K^+ channels located in the basolateral membrane of T84 cells (i.e. KCNQ1/KCNE3 K^+ channels). […] In this protocol, intracellular Na^+ loading by amphotericin B-induced permeabilization of apical membrane stimulated Na^+-K^+ ATPase activity, resulting in an increase in Isc (Fig. 5B, inset). […]
Na^+-K^+ ATPase activity was estimated from values of ouabain-sensitive short-circuit current, which was induced by intracellular Na^+ loading following amphotericin B (250 µg/ml)-induced apical membrane permeabilization. […] Summary of data is expressed as means of ouabain-sensitive short-circuit current ± S.E.M. (n = 6–8).

[7] = system: phosphorylated Ca2+/calmodulin-dependent protein kinase II (CaMKII); assay: Immunoblot analysis of ATP-induced CaMKII phosphorylation in T84 cells; type: cell-based, human; settings: 20 min, ATP 100 µM plus diclofenac 20 µM
Procedure: Proteins were extracted using lysis buffers containing (pH 7.4) 1% Triton X-100, 50 mM Tris-HCl, 150 mM NaCl, 1 mM EDTA, 1 mM NaF, 1 mM Na3VO4, 1 mM PMSF and protease inhibitor (PI) cocktail. Protein concentration was determined using a Lowry method. Equal amounts of proteins were loaded on sodium dodecyl sulfate polyacrylamide gel electrophoresis and transferred to a nitrocellulose membrane. […] The secondary antibodies were horseradish peroxidase-conjugated anti-rabbit IgG antibodies. The immunoblot was visualized using a chemiluminescence detection method.

[8] = target: Ca2+-activated basolateral K+ channels (KCa3.1) (Homo sapiens, UniProt O15554); assay: Basolateral K+ current analysis of ATP-stimulated Ca2+-activated basolateral K+ channels in T84 cells; type: cell-based; settings: BaCl2 5 mM, ATP 100 µM
Procedure: High K^+ apical solution contained (pH 7.3) 142.5 mM K-gluconate, 1.25 mM CaCl2, 0.40 mM MgSO4, 0.43 mM […], 0.35 mM Na2HPO4, 10 mM Na-HEPES and 5.6 mM glucose. In low K^+ basolateral solution, concentration of K-gluconate was reduced to 5.4 mM and 136.9 mM N-methyl-glucamine was added. Before basolateral K^+ current measurements, apical membrane of T84 cells was permeabilized by amphotericin B (250 µg/ml) and ouabain (1 mM) was added into basolateral solution to prevent current contributed by Na^+-K^+ ATPase.

[9] = system: cholera toxin (CT)-induced Cl− secretion in T84 cells; assay: cells; type: cell-based; settings: Homo sapiens
[10] = system: forskolin-induced Cl− secretion in mouse intestinal sheets
[11] = system: CT-induced intestinal fluid secretion; assay: Mouse closed-loop model of cholera induced by CT; type: in vivo; settings: mice, 30 mg/kg intraperitoneal, CT 1 µg/loop, 4 h, loop weight/length ratio
[12] = system: V. cholerae-induced intestinal fluid secretion; assay: Mouse closed-loop model of cholera induced by V. cholerae; type: in vivo; settings: mice, 30 mg/kg intraperitoneal, 10^7 CFU/loop, 12 h, loop weight/length ratio
T84 cells = assay: MTT assay of T84 cell viability; settings: 24-h exposure, 10 µM to 200 µM
[13] = system: Ca2+-activated Cl− channel (CaCC); assay: Apical Cl− current analysis of ATP-stimulated CaCC in T84 cells
[14] = system: inwardly rectifying Cl− channel (IRC); assay: Apical Cl− current analysis of forskolin-stimulated IRC in T84 cells
[15] = target: cAMP-activated basolateral K+ channels (KCNQ1/KCNE3) (Homo sapiens, UniProt P51787); settings: T84 cells, 30 µM
T84 cell monolayers = assay: Barrier function assay (FITC-dextran flux) in T84 cell monolayers; settings: 24-h treatment, 3 mM

T2 sequence (P13569 whole entry): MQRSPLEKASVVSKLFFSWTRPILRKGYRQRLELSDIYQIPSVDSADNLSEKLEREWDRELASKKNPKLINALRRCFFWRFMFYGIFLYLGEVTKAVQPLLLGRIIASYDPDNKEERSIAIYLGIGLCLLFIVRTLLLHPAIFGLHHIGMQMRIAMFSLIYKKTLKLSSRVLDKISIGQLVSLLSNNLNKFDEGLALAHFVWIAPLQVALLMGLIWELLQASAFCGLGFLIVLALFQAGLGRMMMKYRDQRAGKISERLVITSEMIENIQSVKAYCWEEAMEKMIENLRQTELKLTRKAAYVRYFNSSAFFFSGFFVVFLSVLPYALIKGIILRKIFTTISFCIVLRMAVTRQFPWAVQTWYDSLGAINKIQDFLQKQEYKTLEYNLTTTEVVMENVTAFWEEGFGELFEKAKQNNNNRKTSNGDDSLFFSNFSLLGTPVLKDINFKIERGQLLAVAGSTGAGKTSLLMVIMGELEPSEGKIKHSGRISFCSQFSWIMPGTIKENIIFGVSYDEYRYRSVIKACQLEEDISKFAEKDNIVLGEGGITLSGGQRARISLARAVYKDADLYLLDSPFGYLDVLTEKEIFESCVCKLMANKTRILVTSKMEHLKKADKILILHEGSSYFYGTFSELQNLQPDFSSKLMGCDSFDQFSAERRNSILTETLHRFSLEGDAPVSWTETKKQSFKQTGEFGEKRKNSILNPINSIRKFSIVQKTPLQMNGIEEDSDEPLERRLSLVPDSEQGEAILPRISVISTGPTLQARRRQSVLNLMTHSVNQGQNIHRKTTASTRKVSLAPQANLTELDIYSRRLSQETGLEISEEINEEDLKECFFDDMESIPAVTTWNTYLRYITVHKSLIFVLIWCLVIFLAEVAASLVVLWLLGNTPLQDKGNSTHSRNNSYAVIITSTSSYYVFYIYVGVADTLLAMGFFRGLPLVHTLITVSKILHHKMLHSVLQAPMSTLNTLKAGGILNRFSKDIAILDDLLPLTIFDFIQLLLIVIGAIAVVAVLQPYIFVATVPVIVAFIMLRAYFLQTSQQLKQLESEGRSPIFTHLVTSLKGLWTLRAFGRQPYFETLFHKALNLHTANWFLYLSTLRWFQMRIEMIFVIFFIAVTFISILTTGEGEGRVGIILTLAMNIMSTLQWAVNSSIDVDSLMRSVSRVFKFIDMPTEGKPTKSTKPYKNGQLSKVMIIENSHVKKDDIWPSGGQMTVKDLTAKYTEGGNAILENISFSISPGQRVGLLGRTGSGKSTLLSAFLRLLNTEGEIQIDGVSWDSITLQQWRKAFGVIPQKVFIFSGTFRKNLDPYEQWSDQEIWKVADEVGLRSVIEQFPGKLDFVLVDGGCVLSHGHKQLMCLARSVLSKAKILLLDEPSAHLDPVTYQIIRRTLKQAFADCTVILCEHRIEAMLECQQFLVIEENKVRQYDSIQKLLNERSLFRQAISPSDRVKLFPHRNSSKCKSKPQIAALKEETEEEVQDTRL
Sequence of Ca2+-activated basolateral K+ channels (KCa3.1) (O15554 whole entry): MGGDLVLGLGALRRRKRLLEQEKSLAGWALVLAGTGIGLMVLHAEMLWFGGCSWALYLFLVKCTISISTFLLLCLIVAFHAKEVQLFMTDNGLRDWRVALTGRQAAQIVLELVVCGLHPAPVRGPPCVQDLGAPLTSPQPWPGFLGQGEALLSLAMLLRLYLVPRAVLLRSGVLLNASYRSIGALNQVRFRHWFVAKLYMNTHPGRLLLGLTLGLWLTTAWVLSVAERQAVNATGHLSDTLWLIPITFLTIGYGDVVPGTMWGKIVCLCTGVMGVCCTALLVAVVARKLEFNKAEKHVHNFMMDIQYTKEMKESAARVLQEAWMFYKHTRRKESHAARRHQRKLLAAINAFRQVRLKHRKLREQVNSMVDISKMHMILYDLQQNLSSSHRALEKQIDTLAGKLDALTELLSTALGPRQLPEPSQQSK
Sequence of cAMP-activated basolateral K+ channels (KCNQ1/KCNE3) (Q9Y6H6 whole entry): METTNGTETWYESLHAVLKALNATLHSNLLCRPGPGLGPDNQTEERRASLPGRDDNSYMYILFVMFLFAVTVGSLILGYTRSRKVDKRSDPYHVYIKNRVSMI
Sequence of cAMP-activated basolateral K+ channels (KCNQ1/KCNE3) (P51787 whole entry): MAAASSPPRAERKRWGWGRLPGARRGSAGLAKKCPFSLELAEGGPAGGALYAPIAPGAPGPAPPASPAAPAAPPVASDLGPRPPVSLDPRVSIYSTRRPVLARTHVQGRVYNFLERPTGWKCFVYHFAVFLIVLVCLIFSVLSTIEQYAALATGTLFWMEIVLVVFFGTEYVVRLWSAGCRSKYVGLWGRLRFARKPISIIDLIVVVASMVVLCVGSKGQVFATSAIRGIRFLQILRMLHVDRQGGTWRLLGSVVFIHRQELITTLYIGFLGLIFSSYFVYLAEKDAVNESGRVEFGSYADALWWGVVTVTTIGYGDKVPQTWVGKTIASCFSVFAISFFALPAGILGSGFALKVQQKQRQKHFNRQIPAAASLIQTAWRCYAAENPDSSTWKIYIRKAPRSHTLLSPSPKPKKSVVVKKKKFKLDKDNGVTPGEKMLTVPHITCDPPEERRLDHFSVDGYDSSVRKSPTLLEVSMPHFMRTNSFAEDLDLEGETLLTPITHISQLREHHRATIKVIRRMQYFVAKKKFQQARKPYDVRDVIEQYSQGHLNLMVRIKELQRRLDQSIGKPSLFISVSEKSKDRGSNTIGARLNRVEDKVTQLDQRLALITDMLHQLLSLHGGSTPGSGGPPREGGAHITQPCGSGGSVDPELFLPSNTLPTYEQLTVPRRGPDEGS

Structure (SMILES): CCCCNc1cc(C(=O)O)cc(S(N)(=O)=O)c1Oc1ccccc1 [bumetanide]
- effect on Tl+ influx (NKCC1 activity), positive control ([1]; 100 µM): completely prevented

Structure (SMILES): O=C(O)c1ccc(/C=C2\SC(=S)N(c3cccc(C(F)(F)F)c3)C2=O)cc1 [CFTRinh-172]
- effect on recovered apical Cl− current after washout (CFTR Cl− channel [2]; forskolin, CFTRinh-172 5 µM apical): inhibited
- reduction of cholera toxin (CT)-induced intestinal fluid secretion [3]: > 90%
- reduction of live V. cholerae-induced intestinal fluid secretion [4]: > 90%

Structure (SMILES): O=C(O)Cc1ccccc1Nc1c(Cl)cccc1Cl [diclofenac]
- reversibility of inhibition of CFTR-mediated apical Cl− current (CFTR Cl− channel [2]; 20 µM, after removal from bathing solutions): reversible
- IC50 (CFTR Cl− channel [2]; CPT-cAMP 100 µM, read-out: IC50, inhibition of apical Cl− current induced by CPT-cAMP): 8.5 µM
- potency of inhibition of forskolin-induced Cl− current in the presence of IBMX (CFTR Cl− channel [2]; IBMX (PDE inhibitor) vs forskolin control): not different from that of control
- potency of inhibition of apical Cl− current after pretreatment with MK571, compound C or Na2VO3 (CFTR Cl− channel [2]; MRP4, AMPK or protein phosphatase inhibitor): did not alter the potency
- IC50 (CFTR Cl− channel [2]; apical Cl− current, regardless of the mechanisms of CFTR activation, read-out: IC50, inhibition of CFTR Cl− channel activity (summary)): ~10 µM and 8 to 10 µM
- IC50 (CFTR Cl− channel [2]; forskolin 20 µM, read-out: IC50, inhibition of apical Cl− current induced by forskolin): 8 µM
- inhibition of CFTR-mediated apical Cl− current at 100 µM (CFTR Cl− channel [2]; forskolin, CPT-cAMP or genistein, 100 µM): almost complete inhibition
- IC50 (CFTR Cl− channel [2]; genistein 20 µM, read-out: IC50, inhibition of apical Cl− current induced by genistein): 10 µM
- inhibition of CFTR-mediated apical Cl− current at 100 µM (CFTR Cl− channel [5]): near complete inhibition
- IC50 (CFTR Cl− channel [5]; 100 µM, read-out: IC50, inhibition of CFTR-mediated apical Cl− current induced by CPT-cAMP): ~10 µM
- effect on intracellular cAMP levels [6]: virtually no effect
- effect on ouabain-sensitive Isc (Na+-K+ ATPase activity) (Na+-K+ ATPase): no effect
- effect on Tl+ influx (NKCC1 activity) ([1]; pretreatment 200 µM): no effect
- effect on ATP-induced CaMKII phosphorylation [7]: unaffected
- inhibition of basolateral K+ current induced by ATP at 200 µM [8]: near complete inhibition
- IC50 ([9]; T84, read-out: IC50, inhibition of cholera toxin (CT)-induced Cl− secretion): ~10 µM
- inhibition at 100 µM ([9]; T84, read-out: inhibition of CT-induced Cl− secretion at 100 µM): > 95%
- effect on forskolin-induced Cl− secretion in mouse intestinal sheets [10]: inhibited
- inhibition of CT-induced intestinal fluid secretion [11]: ~70%
- inhibition of V. cholerae-induced intestinal fluid secretion [12]: ~70%
- effect on T84 cell viability (MTT) (T84 cells): did not affect
- inhibition of CaCC-mediated apical Cl− current at 20 µM ([13]; 20 µM): almost complete inhibition
- IC50 ([13]; read-out: IC50, inhibition of CaCC-mediated apical Cl− current, CFTRinh-172 pretreatment, ATP 100 µM): ~1 µM
- inhibition of IRC-mediated apical Cl− current at 100 µM ([14]; 100 µM): near complete inhibition
- IC50 ([14]; read-out: IC50, inhibition of IRC-mediated apical Cl− current, CFTRinh-172 pretreatment, forskolin 20 µM): ~5 µM

Structure (SMILES): Clc1ccccc1C(c1ccccc1)(c1ccccc1)n1ccnc1 [clotrimazole]
- effect on CPT-cAMP-induced basolateral K+ current [15]: markedly inhibited

Structure (SMILES): O=C(O)CN(CCOCCOCCN(CC(=O)O)CC(=O)O)CC(=O)O [EGTA]
- effect on FITC-dextran flux, positive control (T84 cell monolayers): markedly increased

From publication PMC4154654 (PLoS Neglected Tropical Diseases, 2014)
